Numbered stars: 1 amine (or outer) side, 2 acyl side, 3 side chain; on linkers, the order of the positions; unused ones are H or OH. Bridge positions count the residues as written; N and C are the ends. Square brackets hold non-standard residues; d marks the D form. Peptide text beside a SMILES is read from it. * marks the point of attachment. FITC = O=C1OC2(c3ccc(O)cc3Oc3cc(O)ccc32)c2ccc(NC(=S)*)cc21; Phe(4-NO2) = N[C@@H](Cc1ccc([N+](=O)[O-])cc1)C(=O)O; Phe(3,4-F2) = N[C@@H](Cc1ccc(F)c(F)c1)C(=O)O; Bip = N[C@@H](Cc1ccc(-c2ccccc2)cc1)C(=O)O; Phe(4-Br) = N[C@@H](Cc1ccc(Br)cc1)C(=O)O; Phe(4-Cl) = N[C@@H](Cc1ccc(Cl)cc1)C(=O)O; Hag = O=C([C@H](CCC=[*:3])N[*:1])[*:2]; Phe(3-F) = N[C@@H](Cc1cccc(F)c1)C(=O)O; Phe(4-F) = N[C@@H](Cc1ccc(F)cc1)C(=O)O; Phe(4-I) = N[C@@H](Cc1ccc(I)cc1)C(=O)O; Gla = N[C@@H](CC(C(=O)O)C(=O)O)C(=O)O; AllylGly = C=CC[C@H](N)C(=O)O

The target in one test is PRMT5/MEP50 complex (Homo sapiens, UniProt O14744+Q9BQA1). In words: (§1) Binding affinity to PRMT5/MEP50 (unknown origin) assessed as dissociation constant by FITC- Competitive binding assay. Format: protein-complex assay.
Chain of PRMT5/MEP50 complex (Homo sapiens, UniProt O14744+Q9BQA1) (O14744 whole entry): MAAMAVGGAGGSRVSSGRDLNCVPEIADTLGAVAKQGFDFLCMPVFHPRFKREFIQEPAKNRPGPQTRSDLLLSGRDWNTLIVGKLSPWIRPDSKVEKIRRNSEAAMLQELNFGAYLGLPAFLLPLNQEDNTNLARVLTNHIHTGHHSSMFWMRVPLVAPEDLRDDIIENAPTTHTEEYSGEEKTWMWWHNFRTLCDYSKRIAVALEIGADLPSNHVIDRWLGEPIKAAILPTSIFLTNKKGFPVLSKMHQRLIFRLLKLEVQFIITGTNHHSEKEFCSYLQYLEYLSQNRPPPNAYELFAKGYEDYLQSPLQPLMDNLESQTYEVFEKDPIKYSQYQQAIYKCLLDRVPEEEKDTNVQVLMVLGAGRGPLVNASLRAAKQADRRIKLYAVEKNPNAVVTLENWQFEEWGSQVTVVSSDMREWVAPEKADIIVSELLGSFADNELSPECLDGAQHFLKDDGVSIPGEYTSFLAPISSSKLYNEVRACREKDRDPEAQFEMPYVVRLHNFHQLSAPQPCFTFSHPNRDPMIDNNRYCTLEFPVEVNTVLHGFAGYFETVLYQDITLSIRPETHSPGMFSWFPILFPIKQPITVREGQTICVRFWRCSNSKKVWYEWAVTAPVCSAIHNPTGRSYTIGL
Chain of PRMT5/MEP50 complex (Homo sapiens, UniProt O14744+Q9BQA1) (Q9BQA1 whole entry): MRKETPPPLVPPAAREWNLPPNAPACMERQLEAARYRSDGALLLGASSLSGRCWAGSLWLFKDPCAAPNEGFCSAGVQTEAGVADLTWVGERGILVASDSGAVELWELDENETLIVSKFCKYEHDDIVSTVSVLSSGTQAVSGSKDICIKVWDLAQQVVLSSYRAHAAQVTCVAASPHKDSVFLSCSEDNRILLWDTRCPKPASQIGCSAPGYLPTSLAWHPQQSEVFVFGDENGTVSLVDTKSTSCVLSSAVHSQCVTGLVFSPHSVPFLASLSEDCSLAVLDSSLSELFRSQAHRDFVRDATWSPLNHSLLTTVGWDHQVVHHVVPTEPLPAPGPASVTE
For orientation: Kd means a measure of binding affinity in units of concentration. Take `CC(C)[C@H](NC(=O)[C@H](CCCNC(=N)N)NC(=O)[C@H](CO)NC(=O)COCCOCCNC(=S)Nc1ccc2c(c1)C(=O)OC21c2ccc(O)cc2Oc2cc(O)ccc21)C(=O)N[C@H](C(=O)N1CCC[C@H]1C(=O)N[C@H]1CCCC[C@H](C(=O)N[C@@H](CC(=O)O)C(=O)N[C@@H](C)C(=O)N[C@@H](CC(=O)O)C(N)=O)NC(=O)[C@H](Cc2ccccc2)NC(=O)[C@H](CCC(N)=O)NC1=O)C(C)C`: the Kd was greater than 2000 nM.

As to `CC(C)[C@H](NC(=O)[C@H](CCCNC(=N)N)NC(=O)[C@H](CO)NC(=O)COCCOCCNC(=S)Nc1ccc2c(c1)C(=O)OC21c2ccc(O)cc2Oc2cc(O)ccc21)C(=O)N[C@H](C(=O)N1CCC[C@H]1C(=O)N[C@H]1CCNC(=O)C[C@H](C(=O)N[C@@H](CC(=O)O)C(=O)N[C@@H](C)C(=O)N[C@@H](CC(=O)O)C(N)=O)NC(=O)[C@H](Cc2ccccc2)NC(=O)[C@H](CCC(N)=O)NC1=O)C(C)C`, the dissociation constant Kd is greater than 2000 nM.

On to `CC(C)[C@H](NC(=O)[C@H](CCCNC(=N)N)NC(=O)[C@H](CO)NC(=O)COCCOCCNC(=S)Nc1ccc2c(c1)C(=O)OC21c2ccc(O)cc2Oc2cc(O)ccc21)C(=O)N[C@H](C(=O)N1CCC[C@H]1C(=O)N[C@H]1CNC(=O)C[C@H](C(=O)N[C@@H](CC(=O)O)C(=O)N[C@@H](C)C(=O)N[C@@H](CC(=O)O)C(N)=O)NC(=O)[C@H](Cc2ccccc2)NC(=O)[C@H](CCC(N)=O)NC1=O)C(C)C`, for which the Kd is greater than 2000 nM.

As to `CC(C)[C@H](NC(=O)[C@H](CCCNC(=N)N)NC(=O)[C@H](CO)NC(=O)COCCOCCNC(=S)Nc1ccc2c(c1)C(=O)OC21c2ccc(O)cc2Oc2cc(O)ccc21)C(=O)N[C@H](C(=O)N1CCC[C@H]1C(=O)N[C@H]1CCNC(=O)CC[C@H](C(=O)N[C@@H](CC(=O)O)C(=O)N[C@@H](C)C(=O)N[C@@H](CC(=O)O)C(N)=O)NC(=O)[C@H](Cc2ccccc2)NC(=O)[C@H](CCC(N)=O)NC1=O)C(C)C`, the dissociation constant Kd is greater than 2000 nM. Consider `CC(=O)N[C@H](C(=O)N1CCC[C@H]1C(=O)N[C@H]1CCCCCC[C@H](C(=O)N[C@@H](CC(=O)O)C(=O)N[C@@H](C)C(=O)N[C@@H](CC(=O)O)C(=O)N[C@@H](CCCCNC(=S)Nc2ccc3c(c2)C(=O)OC32c3ccc(O)cc3Oc3cc(O)ccc32)C(N)=O)NC(=O)[C@H](Cc2ccccc2)NC(=O)[C@H](CCC(N)=O)NC1=O)C(C)C`, for which the dissociation constant (Kd) is greater than 2000 nM. `CC(=O)N[C@H](C(=O)N1CCC[C@H]1C(=O)N[C@H]1C/C=C\CC[C@H](C(=O)N[C@@H](CC(=O)O)C(=O)N[C@@H](C)C(=O)N[C@@H](CC(=O)O)C(=O)N[C@@H](CCCCNC(=S)Nc2ccc3c(c2)C(=O)OC32c3ccc(O)cc3Oc3cc(O)ccc32)C(N)=O)NC(=O)[C@H](Cc2ccccc2)NC(=O)[C@H](CCC(N)=O)NC1=O)C(C)C`: the equilibrium dissociation constant (Kd) is greater than 2000 nM. Take `CC(=O)N[C@H](C(=O)N1CCC[C@H]1C(=O)N[C@H]1CCCCC[C@H](C(=O)N[C@@H](CC(=O)O)C(=O)N[C@@H](C)C(=O)N[C@@H](CC(=O)O)C(=O)N[C@@H](CCCCNC(=S)Nc2ccc3c(c2)C(=O)OC32c3ccc(O)cc3Oc3cc(O)ccc32)C(N)=O)NC(=O)[C@H](Cc2ccccc2)NC(=O)[C@H](CCC(N)=O)NC1=O)C(C)C`: the Kd was greater than 2000 nM.

Take `CC(=O)N[C@H](C(=O)N1CCC[C@H]1C(=O)N[C@H]1CC/C=C/CC[C@H](C(=O)N[C@@H](CC(=O)O)C(=O)N[C@@H](C)C(=O)N[C@@H](CC(=O)O)C(=O)N[C@@H](CCCCNC(=S)Nc2ccc3c(c2)C(=O)OC32c3ccc(O)cc3Oc3cc(O)ccc32)C(N)=O)NC(=O)[C@H](Cc2ccccc2)NC(=O)[C@H](CCC(N)=O)NC1=O)C(C)C`: the Kd was greater than 2000 nM.

The target in another test is PRMT5/MEP50 complex (Homo sapiens, UniProt O14744). The test is described as §1. Format: protein-complex assay.
Chain of PRMT5/MEP50 complex (Homo sapiens, UniProt O14744) (O14744 whole entry): as the sequence (O14744 whole entry) above
Chain of PRMT5/MEP50 complex (Homo sapiens, UniProt O14744) (Q9BQA1 whole entry, further chain): as the sequence (Q9BQA1 whole entry) above
With `CC(=O)N[C@H](C(=O)N1CCC[C@H]1C(=O)NCC(=O)N[C@@H](CCC(N)=O)C(=O)N[C@@H](Cc1ccc(-c2ccccc2)cc1)C(=O)N[C@@H](CC(=O)O)C(=O)N[C@@H](CC(=O)O)C(=O)N[C@@H](C)C(=O)N[C@@H](CC(=O)O)C(=O)N[C@@H](CCCCNC(=S)Nc1ccc2c(c1)C(=O)OC21c2ccc(O)cc2Oc2cc(O)ccc21)C(N)=O)C(C)C` (Ac-VPGQ[Bip]DDADK(FITC)-NH2), the equilibrium dissociation constant (Kd) was found to be 447 nM. With `CC(=O)N[C@H](C(=O)N1CCC[C@H]1C(=O)NCC(=O)N[C@@H](CCC(N)=O)C(=O)N[C@@H](Cc1ccc(Br)cc1)C(=O)N[C@@H](CC(=O)O)C(=O)N[C@@H](CC(=O)O)C(=O)N[C@@H](C)C(=O)N[C@@H](CC(=O)O)C(=O)N[C@@H](CCCCNC(=S)Nc1ccc2c(c1)C(=O)OC21c2ccc(O)cc2Oc2cc(O)ccc21)C(N)=O)C(C)C` (Ac-VPGQ[Phe(4-Br)]DDADK(FITC)-NH2), the Kd was 317 nM. Still for that read-out and setting: to `CC(=O)N[C@H](C(=O)N1CCC[C@H]1C(=O)NCC(=O)N[C@@H](CCC(N)=O)C(=O)N[C@@H](Cc1ccc(I)cc1)C(=O)N[C@@H](CC(=O)O)C(=O)N[C@@H](CC(=O)O)C(=O)N[C@@H](C)C(=O)N[C@@H](CC(=O)O)C(=O)N[C@@H](CCCCNC(=S)Nc1ccc2c(c1)C(=O)OC21c2ccc(O)cc2Oc2cc(O)ccc21)C(N)=O)C(C)C` (Ac-VPGQ[Phe(4-I)]DDADK(FITC)-NH2) belongs 279 nM; to `CC(=O)N[C@H](C(=O)N1CCC[C@H]1C(=O)NCC(=O)N[C@@H](CCC(N)=O)C(=O)N[C@@H](Cc1ccc(F)cc1)C(=O)N[C@@H](CC(=O)O)C(=O)N[C@@H](CC(=O)O)C(=O)N[C@@H](C)C(=O)N[C@@H](CC(=O)O)C(=O)N[C@@H](CCCCNC(=S)Nc1ccc2c(c1)C(=O)OC21c2ccc(O)cc2Oc2cc(O)ccc21)C(N)=O)C(C)C` (Ac-VPGQ[Phe(4-F)]DDADK(FITC)-NH2), 391 nM; to `CC(=O)N[C@H](C(=O)N1CCC[C@H]1C(=O)NCC(=O)N[C@@H](CCC(N)=O)C(=O)N[C@@H](Cc1cccc(F)c1)C(=O)N[C@@H](CC(=O)O)C(=O)N[C@@H](CC(=O)O)C(=O)N[C@@H](C)C(=O)N[C@@H](CC(=O)O)C(=O)N[C@@H](CCCCNC(=S)Nc1ccc2c(c1)C(=O)OC21c2ccc(O)cc2Oc2cc(O)ccc21)C(N)=O)C(C)C` (Ac-VPGQ[Phe(3-F)]DDADK(FITC)-NH2), 654 nM. Regarding `CC(=O)N[C@H](C(=O)N1CCC[C@H]1C(=O)NCC(=O)N[C@@H](CCC(N)=O)C(=O)N[C@@H](Cc1ccc(Cl)cc1)C(=O)N[C@@H](CC(=O)O)C(=O)N[C@@H](CC(=O)O)C(=O)N[C@@H](C)C(=O)N[C@@H](CC(C(=O)O)C(=O)O)C(=O)N[C@@H](CCCCNC(=S)Nc1ccc2c(c1)C(=O)OC21c2ccc(O)cc2Oc2cc(O)ccc21)C(N)=O)C(C)C` (Ac-VPGQ[Phe(4-Cl)]DDA[Gla]K(FITC)-NH2), the Kd came to 144 nM. In the case of `CC(=O)N[C@H](C(=O)N1CCC[C@H]1C(=O)NCC(=O)N[C@@H](CCC(N)=O)C(=O)N[C@@H](Cc1ccc(Cl)cc1)C(=O)N[C@@H](CC(=O)O)C(=O)N[C@@H](CC(=O)O)C(=O)N[C@@H](C)C(=O)N[C@@H](CC(=O)O)C(=O)N[C@@H](CCCCNC(=S)Nc1ccc2c(c1)C(=O)OC21c2ccc(O)cc2Oc2cc(O)ccc21)C(N)=O)C(C)C` (Ac-VPGQ[Phe(4-Cl)]DDADK(FITC)-NH2), the dissociation constant (Kd) was found to be 250 nM. With `CC(=O)N[C@H](C(=O)N1CCC[C@H]1C(=O)NCC(=O)N[C@@H](CCC(N)=O)C(=O)N[C@@H](Cc1ccc([N+](=O)[O-])cc1)C(=O)N[C@@H](CC(=O)O)C(=O)N[C@@H](CC(=O)O)C(=O)N[C@@H](C)C(=O)N[C@@H](CC(=O)O)C(=O)N[C@@H](CCCCNC(=S)Nc1ccc2c(c1)C(=O)OC21c2ccc(O)cc2Oc2cc(O)ccc21)C(N)=O)C(C)C` (Ac-VPGQ[Phe(4-NO2)]DDADK(FITC)-NH2), the dissociation constant (Kd) turned out to be 232 nM. Same read-out and setting: then `CC(=O)N[C@H](C(=O)N1CCC[C@H]1C(=O)NCC(=O)N[C@@H](CCC(N)=O)C(=O)N[C@@H](Cc1ccccc1)C(=O)N[C@@H](CC(=O)O)C(=O)N[C@@H](CC(=O)O)C(=O)N[C@@H](C)C(=O)N[C@@H](CC(C(=O)O)C(=O)O)C(=O)N[C@@H](CCCCNC(=S)Nc1ccc2c(c1)C(=O)OC21c2ccc(O)cc2Oc2cc(O)ccc21)C(N)=O)C(C)C` (Ac-VPGQFDDA[Gla]K(FITC)-NH2), with 245 nM; and `CC(=O)N[C@H](C(=O)N1CCC[C@H]1C(=O)NCC(=O)N[C@@H](CCC(N)=O)C(=O)N[C@@H](Cc1ccc(F)c(F)c1)C(=O)N[C@@H](CC(=O)O)C(=O)N[C@@H](CC(=O)O)C(=O)N[C@@H](C)C(=O)N[C@@H](CC(=O)O)C(=O)N[C@@H](CCCCNC(=S)Nc1ccc2c(c1)C(=O)OC21c2ccc(O)cc2Oc2cc(O)ccc21)C(N)=O)C(C)C` (Ac-VPGQ[Phe(3,4-F2)]DDADK(FITC)-NH2), with 412 nM. Consider `CC(=O)N[C@H](C(=O)N1CCC[C@H]1C(=O)NCC(=O)N[C@@H](CCC(N)=O)C(=O)N[C@@H](Cc1ccc([N+](=O)[O-])cc1)C(=O)N[C@@H](CC(=O)O)C(=O)N[C@@H](CC(=O)O)C(=O)N[C@@H](C)C(=O)N[C@@H](CC(C(=O)O)C(=O)O)C(=O)N[C@@H](CCCCNC(=S)Nc1ccc2c(c1)C(=O)OC21c2ccc(O)cc2Oc2cc(O)ccc21)C(N)=O)C(C)C` (Ac-VPGQ[Phe(4-NO2)]DDA[Gla]K(FITC)-NH2), for which the dissociation constant (Kd) came to 78 nM. Consider `CC(C)[C@H](NC(=O)[C@H](CCCNC(=N)N)NC(=O)[C@H](CO)NC(=O)COCCOCCNC(=S)Nc1ccc2c(c1)C(=O)OC21c2ccc(O)cc2Oc2cc(O)ccc21)C(=O)N[C@H](C(=O)N1CCC[C@H]1C(=O)N[C@H]1CCCC[C@@H](C(=O)N[C@@H](CC(=O)O)C(=O)N[C@@H](C)C(=O)N[C@@H](CC(=O)O)C(N)=O)NC(=O)[C@H](Cc2ccccc2)NC(=O)[C@H](CCC(N)=O)NC1=O)C(C)C`, for which the Kd stood at 1290 nM. On the same count and under the same terms, to `CC(=O)N[C@H](C(=O)N1CCC[C@H]1C(=O)N[C@H]1CCCCCC[C@@H](C(=O)N[C@@H](CC(=O)O)C(=O)N[C@@H](C)C(=O)N[C@@H](CC(=O)O)C(=O)N[C@@H](CCCCNC(=S)Nc2ccc3c(c2)C(=O)OC32c3ccc(O)cc3Oc3cc(O)ccc32)C(N)=O)NC(=O)[C@H](Cc2ccccc2)NC(=O)[C@H](CCC(N)=O)NC1=O)C(C)C` belongs greater than 2000 nM; to `CC(=O)N[C@H](C(=O)N1CCC[C@H]1C(=O)N[C@H]1CC/C=C/C[C@@H](C(=O)N[C@@H](CC(=O)O)C(=O)N[C@@H](C)C(=O)N[C@@H](CC(=O)O)C(=O)N[C@@H](CCCCNC(=S)Nc2ccc3c(c2)C(=O)OC32c3ccc(O)cc3Oc3cc(O)ccc32)C(N)=O)NC(=O)[C@H](Cc2ccccc2)NC(=O)[C@H](CCC(N)=O)NC1=O)C(C)C` (Ac-VP[Hag]QF[AllylGly]DADK(FITC)-NH2; staple (E) 3-6), 562 nM.
